# Test results reported in publication PMC3484517 (The Korean Journal of Physiology & Pharmacology : Official …, 2012).
# Read-outs that look alike come from different tables or passages of the source.
# Legend:
# [1] = test system: ECG intervals (RR, PR, QRS, QT); conditions: adult outpatient population (n=1,048); cited from earlier work
# KCNJ2 (IK1) = target: T1, KCNJ2 (IK1) (Homo sapiens, UniProt P63252); assay: whole-cell patch clamp of IK1 in KCNJ2-transfected HEK293 cells; assay type: cell-based
# T1 sequence (P63252 1-427): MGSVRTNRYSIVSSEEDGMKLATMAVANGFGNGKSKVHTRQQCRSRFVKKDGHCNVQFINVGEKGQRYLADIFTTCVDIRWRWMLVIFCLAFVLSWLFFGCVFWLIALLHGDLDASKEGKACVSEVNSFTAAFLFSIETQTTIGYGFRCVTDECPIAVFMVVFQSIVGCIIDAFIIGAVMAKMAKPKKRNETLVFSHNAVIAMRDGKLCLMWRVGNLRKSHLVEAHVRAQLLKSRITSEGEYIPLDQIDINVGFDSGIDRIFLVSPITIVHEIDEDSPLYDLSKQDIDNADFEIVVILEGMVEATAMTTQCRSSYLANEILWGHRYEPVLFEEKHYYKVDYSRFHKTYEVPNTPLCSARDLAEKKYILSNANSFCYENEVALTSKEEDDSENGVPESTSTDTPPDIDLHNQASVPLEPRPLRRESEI
# hERG K+ channel = hERG K+ channel (Homo sapiens, UniProt Q12809); assay: whole-cell patch clamp of hERG; assay type: cell-based
# hERG K+ channel (IKr) = hERG K+ channel (IKr) (Homo sapiens, UniProt Q12809); assay: whole-cell patch clamp of hERG; assay type: cell-based; conditions: human, HEK293 cells transiently transfected with hERG, pH 7.4
# KCNQ1/KCNE1 (IKs) = KCNQ1/KCNE1 (IKs) (Homo sapiens, UniProt P51787); assay: whole-cell patch clamp of IKs in KCNQ1/KCNE1-cotransfected HEK293 cells; assay type: cell-based
# [2] = test system: isolated guinea-pig atria; conditions: spontaneously beating isolated guinea-pig atria; cited from earlier work
# Chain of hERG K+ channel (IKr) (Q12809 whole entry): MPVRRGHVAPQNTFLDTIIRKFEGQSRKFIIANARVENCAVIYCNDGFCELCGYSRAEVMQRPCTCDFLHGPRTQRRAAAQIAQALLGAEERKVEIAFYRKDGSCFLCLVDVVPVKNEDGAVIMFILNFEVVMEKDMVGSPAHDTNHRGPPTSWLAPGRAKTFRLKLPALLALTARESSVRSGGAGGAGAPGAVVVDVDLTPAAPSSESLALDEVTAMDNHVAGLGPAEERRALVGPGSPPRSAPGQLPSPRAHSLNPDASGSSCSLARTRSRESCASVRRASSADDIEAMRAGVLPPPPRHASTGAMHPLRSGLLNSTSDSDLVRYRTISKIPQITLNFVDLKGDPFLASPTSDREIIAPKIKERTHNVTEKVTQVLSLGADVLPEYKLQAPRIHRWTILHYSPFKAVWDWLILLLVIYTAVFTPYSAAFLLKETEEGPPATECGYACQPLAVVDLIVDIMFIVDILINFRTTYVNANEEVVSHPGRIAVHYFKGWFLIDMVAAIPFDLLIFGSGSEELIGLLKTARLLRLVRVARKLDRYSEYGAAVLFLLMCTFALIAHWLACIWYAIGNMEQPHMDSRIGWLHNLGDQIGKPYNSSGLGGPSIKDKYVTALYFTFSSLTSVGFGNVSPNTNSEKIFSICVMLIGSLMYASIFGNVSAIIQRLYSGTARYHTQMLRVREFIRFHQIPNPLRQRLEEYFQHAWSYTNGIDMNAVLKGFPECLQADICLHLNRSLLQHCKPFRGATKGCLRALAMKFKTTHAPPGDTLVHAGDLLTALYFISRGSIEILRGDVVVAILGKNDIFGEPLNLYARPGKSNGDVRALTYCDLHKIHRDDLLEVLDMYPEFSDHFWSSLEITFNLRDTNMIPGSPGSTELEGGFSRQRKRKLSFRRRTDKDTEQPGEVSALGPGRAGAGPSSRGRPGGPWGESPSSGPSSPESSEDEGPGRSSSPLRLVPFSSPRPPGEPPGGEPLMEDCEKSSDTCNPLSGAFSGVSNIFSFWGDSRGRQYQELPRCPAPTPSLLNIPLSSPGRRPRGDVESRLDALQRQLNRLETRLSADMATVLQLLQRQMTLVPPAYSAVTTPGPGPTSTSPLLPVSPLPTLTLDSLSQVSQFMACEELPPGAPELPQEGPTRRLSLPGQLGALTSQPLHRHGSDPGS
# Chain of KCNQ1/KCNE1 (IKs) (P51787 whole entry): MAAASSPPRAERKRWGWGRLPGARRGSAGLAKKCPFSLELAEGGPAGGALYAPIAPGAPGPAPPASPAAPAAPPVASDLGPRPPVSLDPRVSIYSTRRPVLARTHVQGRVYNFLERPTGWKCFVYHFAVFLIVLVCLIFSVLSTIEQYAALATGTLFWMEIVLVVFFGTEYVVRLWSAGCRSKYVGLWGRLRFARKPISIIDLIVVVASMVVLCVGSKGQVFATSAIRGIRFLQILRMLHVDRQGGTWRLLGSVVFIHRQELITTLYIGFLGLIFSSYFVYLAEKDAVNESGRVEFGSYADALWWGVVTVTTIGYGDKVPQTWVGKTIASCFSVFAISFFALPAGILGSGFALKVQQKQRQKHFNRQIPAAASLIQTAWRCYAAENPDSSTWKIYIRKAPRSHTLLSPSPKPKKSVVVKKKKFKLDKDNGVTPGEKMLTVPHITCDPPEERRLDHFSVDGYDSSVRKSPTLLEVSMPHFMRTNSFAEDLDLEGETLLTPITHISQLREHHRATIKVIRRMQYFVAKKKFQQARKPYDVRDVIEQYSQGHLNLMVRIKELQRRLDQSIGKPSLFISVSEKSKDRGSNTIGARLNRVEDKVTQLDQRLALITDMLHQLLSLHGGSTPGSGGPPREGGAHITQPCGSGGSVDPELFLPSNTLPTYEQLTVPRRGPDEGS
# Chain of hERG K+ channel (Q12809 whole entry): as the sequence (Q12809 whole entry) above
compound,measurement,setting,value
CN[C@H]1CC[C@@H](c2ccc(Cl)c(Cl)c2)c2ccccc21 [Sertraline],"effect on RR, PR, QRS, and QT intervals",[1],no significant effect
same,IC50,KCNJ2 (IK1),10.5 µM
same,reduction of IK1 amplitude,"KCNJ2 (IK1); 1 µM sertraline, n=4",0.7±2.7%
same,reduction of IK1 amplitude,"KCNJ2 (IK1); 3 µM sertraline, n=4",9.4±1.1%
same,reduction of IK1 amplitude,"KCNJ2 (IK1); 10 µM sertraline, n=4",45.7±3.9%
same,reduction of IK1 amplitude,"KCNJ2 (IK1); 30 µM sertraline, n=4",92.5± 1.2%
same,"Hill coefficient, IK1 inhibition","KCNJ2 (IK1); KCNJ2 HEK293 cells, n=4",2.1±0.2
same,IC50,hERG K+ channel,0.7 µM
same,"Hill coefficient, hERG current inhibition","hERG K+ channel; HEK293 cells, Hill fit, n=4",1.3±0.02
same,inhibition at 1 µM,hERG K+ channel (IKr),7.9 ± 1.9%
same,inhibition at 3 µM,hERG K+ channel (IKr),24.2 ± 1.9%
same,inhibition at 10 µM,hERG K+ channel (IKr),60.1 ± 2.7%
same,inhibition at 30 µM,hERG K+ channel (IKr),86.4 ± 1.4%
same,IC50,KCNQ1/KCNE1 (IKs),12.3 ± 1.3 µM
same,reduction of IKs amplitude,"KCNQ1/KCNE1 (IKs); 1 µM sertraline, n=4",1.5±3.8%
same,reduction of IKs amplitude,"KCNQ1/KCNE1 (IKs); 3 µM sertraline, n=4",10.3±2.5%
same,reduction of IKs amplitude,"KCNQ1/KCNE1 (IKs); 10 µM sertraline, n=4",36.6±3.5%
same,reduction of IKs amplitude,"KCNQ1/KCNE1 (IKs); 30 µM sertraline, n=4",84.0±5.6%
same,"Hill coefficient, IKs inhibition","KCNQ1/KCNE1 (IKs); KCNQ1/KCNE1 HEK293 cells, n=4",2.5±0.1
same,IC50,"KCNQ1/KCNE1 (IKs); human, HEK293 cells transiently cotransfected with KCNQ1/KCNE1, pH 7.4",15.2 µM
same,effect on rate of contractions and contractile force,[2],dose-dependent decrease in the rate contractions and in the contractile force
